Experimental data reported in patent US20160257651A1, “NOVEL COMPOUND WITH ANTIBACTERIAL ACTIVITY” (priority 2013, published 2016).
In brackets after ≈: the same amount, converted by molar mass. Where two headings read alike, the source gives them in different places.

Legend:
[1] = tested on: E. faecalis NCTC12203; assay: MIC against Enterococcus bacteria; format: cell-based; settings: NCTC 12203 / VRE
Experimental: (§1) Antibacterial activities of the compound J-131CP against Enterococcus bacteria (Enterococcus faecium and Enterococcus faecalis) were examined by the following methods.
(§2) The compound J-131CP and quinolones were prepared in the same manner as that of Test Example 1-1.
(§3) Cell suspensions were prepared in the same manner as that of Test Example 1-1 described in the section of measurement of MIC in Test Example 1-1, except that the Enterococcus bacterium strains mentioned in Table 8 were used instead of Staphylococcus aureus, and MICs of the compound J-131CP and quinolones as control were determined for the strains in the same manner as that of Test Example 1-1 described in the section of measurement of MIC in Test Example 1-1. In Table 8, the amino acid substitution mutations in QRDR of the strains are underlined.

[2] = tested on: E. faecium NCTC12204; assay: MIC against Enterococcus bacteria; format: cell-based; settings: NCTC 12204 / VRE
Experimental: as §1, §2, §3

[3] = tested on: E. faecalis 36-15747; assay: MIC against Enterococcus bacteria; format: cell-based; settings: 3615747, ParC 80Ile
Experimental: as §1, §2, §3

[4] = tested on: E. faecium RPR10; assay: MIC against Enterococcus bacteria; format: cell-based
Experimental: as §1, §2, §3

[5] = tested on: E. faecalis NCTC12201; assay: MIC against Enterococcus bacteria; format: cell-based; settings: Enterococcus faecalis, NCTC 12201 / VRE, quinolone-susceptible
Experimental: as §1, §2, §3

[6] = tested on: S. aureus MS5952; assay: MIC against stepwise QRDR mutants; format: cell-based; settings: Staphylococcus aureus
Source text: (§4) In order to further verify that the action site of the compound J-131CP is gyrA, there were examined antibacterial activities against the MRSA, S. aureus MR5867, and stepwise-mutated strains (one-step mutant strain to three-step mutant strain) of S. aureus MR5867 in which mutation was introduced into QRDR, as well as the MSSA, S. aureus MS5952, and stepwise-mutated strains (one-step mutant strain to three-step mutant strain) of S. aureus MS5952 in which mutation was introduced into QRDR (those strains mentioned above are described in Antimicrob. Agents Chemother., 42(8), pp. 1917-1922, 1998) by the following methods. The strains used for this test example are available from the inventors of the present invention.
as §2
(§5) Then, the cell suspension was diluted 500 times with CAMHB mentioned above.
(§6) CAMHB containing each of the compound J-131CP and quinolones at each concentration was added to each well of a 96-well plate in a volume of 50 μL/well, the aforementioned cell suspension diluted 500 times was added to the well in a volume of 50 μL/well, and stationary culture was carried out overnight at 37° C. in the same manner as that of Test Example 1-1.

[7] = tested on: S. aureus MR5867 two-step mutant; assay: MIC against stepwise QRDR mutants; format: cell-based; settings: Staphylococcus aureus
Source text: as §4, §2, §5, §6

[8] = tested on: S. aureus MR5867 three-step mutant; assay: MIC against stepwise QRDR mutants; format: cell-based; settings: Staphylococcus aureus
Source text: as §4, §2, §5, §6

[9] = tested on: S. aureus MS5952 two-step mutant; assay: MIC against stepwise QRDR mutants; format: cell-based; settings: Staphylococcus aureus
Source text: as §4, §2, §5, §6

[10] = tested on: S. aureus MS5952 three-step mutant; assay: MIC against stepwise QRDR mutants; format: cell-based; settings: Staphylococcus aureus
Source text: as §4, §2, §5, §6

[11] = tested on: S. aureus MR5867; assay: MIC against stepwise QRDR mutants; format: cell-based; settings: Staphylococcus aureus
Source text: as §4, §2, §5, §6

[12] = tested on: E. faecium RPR2; assay: MIC against Enterococcus bacteria; format: cell-based, Enterococcus faecium; settings: Enterococcus faecium, RPR2
Experimental: as §1, §2, §3

[13] = tested on: E. faecium NCTC12202; assay: MIC against Enterococcus bacteria; format: cell-based, Enterococcus faecium; settings: Enterococcus faecium, NCTC 12202 / VRE
Experimental: as §1, §2, §3

[14] = tested on: S. aureus Mu50; assay: microbe, parasite or virus in culture; format: cell-based, Staphylococcus aureus; settings: for MIC ratio (Mu50 MIC/FDA209P MIC): MIC for S. aureus Mu50 / MIC for S. aureus FDA209P; for MIC: S. aureus Mu50, quinolone-resistant MRSA, ParC S80F, GyrA S84L
Experimental: as §5

[15] = tested on: S. aureus FDA209P (ATCC 6538P); assay: microbe, parasite or virus in culture; format: cell-based, Staphylococcus aureus; settings: Staphylococcus aureus, ATCC 6538P / FDA209P / MSSA, quinolone-susceptible MSSA, ParC 80S, GyrA 84S, read-out: MIC
Experimental: as §5

[16] = tested on: S. aureus Mu50 NR1-1; assay: microbe, parasite or virus in culture; format: cell-based; settings: Staphylococcus aureus, MU50NR11
Experimental: as §5

[17] = tested on: E. faecalis 36-15722; assay: MIC against Enterococcus bacteria; format: cell-based, Enterococcus faecalis; settings: Enterococcus faecalis, 3615722; E. faecalis 36-15722, quinolone-resistant; ParC 80Ile, GyrA 84Ile; read-out: MIC
Experimental: as §1, §2, §3

[18] = E. faecalis NCTC12203, VRE, read-out: MIC
[19] = E. faecium NCTC12204, VRE, read-out: MIC
[20] = E. faecium RPR10, read-out: MIC
[21] = E. faecium NCTC12202, VRE, quinolone-susceptible, read-out: MIC

SMILES: CC1COc2c(N3CCN(C)CC3)c(F)cc3c(=O)c(C(=O)O)cn1c23 (centres unmarked) [OFX, ofloxacin]
- MIC [1, 18]: 4 µg/mL (≈ 11.1 µM)
- MIC [2, 19]: 4 µg/mL (≈ 11.1 µM)
- MIC [3]: 4 µg/mL (≈ 11.1 µM)
- MIC [4, 20]: 2 µg/mL (≈ 5.53 µM)
- MIC ([5]; read-out: MIC): 2 µg/mL (≈ 5.53 µM)
- MIC [6]: 0.25 µg/mL (≈ 0.692 µM)
- MIC [7]: 16 µg/mL (≈ 44.3 µM)
- MIC [8]: 64 µg/mL (≈ 177 µM)
- MIC [9]: 8 µg/mL (≈ 22.1 µM)
- MIC [10]: 64 µg/mL (≈ 177 µM)
- MIC [11]: 0.25 µg/mL (≈ 0.692 µM)
- MIC [12]: > 128 µg/mL
- MIC [13, 21]: 1 µg/mL (≈ 2.77 µM)
- MIC ratio (Mu50 MIC/FDA209P MIC) [14]: 128
- MIC [14]: 16 µg/mL (≈ 44.3 µM)
- MIC ([14]; Staphylococcus aureus, MRSA): 8 to 128 µg/mL (≈ 22.1 to 354 µM)
- MIC [15]: 0.125 µg/mL (≈ 0.346 µM)
- MIC [16]: 2 µg/mL (≈ 5.53 µM)
- MIC [17]: 64 µg/mL (≈ 177 µM)

SMILES: O=c1cc(CO)c2cc(F)c(-c3ccc(O)cc3)cc2n1C1CC1 [J-131CP, 1-cyclopropyl-6-fluoro-4-(hydroxymethyl)-7-(4-hydroxyphenyl)-1,2-dihydroquinolin-2-one]
- MIC [1]: 2 µg/mL (≈ 6.15 µM)
- MIC [2]: 8 µg/mL (≈ 24.6 µM)
- MIC [3]: 0.5 µg/mL (≈ 1.54 µM)
- MIC ([4]; RPR10): 4 µg/mL (≈ 12.3 µM)
- MIC [5]: 0.5 µg/mL (≈ 1.54 µM)
- MIC [6]: 0.25 µg/mL (≈ 0.768 µM)
- MIC [7]: > 0.06 µg/mL
- MIC [8]: ≤ 0.06 µg/mL
- MIC [9]: 0.125 µg/mL (≈ 0.384 µM)
- MIC [10]: 0.125 µg/mL (≈ 0.384 µM)
- MIC [11]: 0.25 µg/mL (≈ 0.768 µM)
- MIC [12]: 4 µg/mL (≈ 12.3 µM)
- MIC [13]: 8 µg/mL (≈ 24.6 µM)
- MIC ratio (Mu50 MIC/FDA209P MIC) [14]: ≦0.25
- MIC ([14]; Staphylococcus aureus, MRSA): ≤ 0.06 µg/mL
- MIC [15]: 0.25 µg/mL (≈ 0.768 µM)
- MIC [16]: 0.25 µg/mL (≈ 0.768 µM)
- MIC [17]: 1 µg/mL (≈ 3.07 µM)

SMILES: CCn1cc(C(=O)O)c(=O)c2cc(F)c(N3CCNCC3)cc21 [NOR, norfloxacin]
- MIC [1, 18]: 4 µg/mL (≈ 12.5 µM)
- MIC [2, 19]: 4 µg/mL (≈ 12.5 µM)
- MIC [3]: 16 µg/mL (≈ 50.1 µM)
- MIC [4, 20]: 2 µg/mL (≈ 6.26 µM)
- MIC ([5]; read-out: MIC): 2 µg/mL (≈ 6.26 µM)
- MIC [6]: 1 µg/mL (≈ 3.13 µM)
- MIC [7]: 64 µg/mL (≈ 200 µM)
- MIC [8]: > 128 µg/mL
- MIC [9]: 16 µg/mL (≈ 50.1 µM)
- MIC [10]: 128 µg/mL (≈ 401 µM)
- MIC [11]: 1 µg/mL (≈ 3.13 µM)
- MIC [12]: > 128 µg/mL
- MIC [13, 21]: 2 µg/mL (≈ 6.26 µM)
- MIC ratio (Mu50 MIC/FDA209P MIC) [14]: 512
- MIC [15]: 0.25 µg/mL (≈ 0.783 µM)
- MIC [16]: 16 µg/mL (≈ 50.1 µM)
- MIC [17]: 128 µg/mL (≈ 401 µM)

SMILES: NC1CCN(c2nc3c(cc2F)c(=O)c(C(=O)O)cn3-c2ccc(F)cc2F)C1 (centres unmarked) [TSX, tosufloxacin]
- MIC [1, 18]: 4 µg/mL (≈ 9.89 µM)
- MIC [2, 19]: 4 µg/mL (≈ 9.89 µM)
- MIC [3]: 2 µg/mL (≈ 4.95 µM)
- MIC [4, 20]: 4 µg/mL (≈ 9.89 µM)
- MIC ([5]; read-out: MIC): 0.25 µg/mL (≈ 0.618 µM)
- MIC [6]: 0.25 µg/mL (≈ 0.618 µM)
- MIC [7]: 8 µg/mL (≈ 19.8 µM)
- MIC [8]: > 128 µg/mL
- MIC [9]: 8 µg/mL (≈ 19.8 µM)
- MIC [10]: > 128 µg/mL
- MIC [11]: < 0.06 µg/mL
- MIC [12]: > 128 µg/mL
- MIC [13, 21]: 0.25 µg/mL (≈ 0.618 µM)
- MIC ratio (Mu50 MIC/FDA209P MIC) [14]: ≧2048
- MIC [15]: ≤ 0.06 µg/mL
- MIC [16]: 0.5 µg/mL (≈ 1.24 µM)
- MIC [17]: > 128 µg/mL
